From patent US20090023667A1 (priority 2005, published 2009) come the findings set out here.

What all share (format): in vivo
Experiment [1] has as its system Pyricularia oryzae. Put plainly: whole plant or invertebrate.
Experiment [2] concerns Pyricularia oryzae. The following applies: rice blast, nursery box application of granule.
In experiment [3] the test system is Rhizoctonia solani. As to the kind of experiment: Test Example 4: control test on paddy rice sheath blight, spraying. The method, then: A compound solution of a prescribed concentration was sprayed on three 1/5000a rice pots (cultivar: Koshihikari; 4 leaf stage). After one day from the spraying, Rhizoctonia solani cultured on a rice chaff/bran medium was inoculated on the basal of the rice plant. After 10 days from the inoculation, the extended lesion length of sheath blight of the whole stem was examined. The control value was calculated according to the following equation (3 replications).
(§1) Control Value=(1−average lesion length per a stem in the treated plot/average lesion length per a stem in the untreated plot)×100

In experiment [4] the test system is Pyricularia oryzae.
Experiment [5] has as its system Rhizoctonia solani. Put plainly: Test Example 6: control test on paddy rice sheath blight, nursery box application. The note with it: nursery box application of granule. On the procedure:
After 30 days from the treatment, Rhizoctonia solani cultured on a rice chaff/bran medium was inoculated on the basal of the rice plant. After 10 days from the inoculation, the extended lesion length of sheath blight of the whole stem was examined. The control value was calculated according to the following equation (3 replications).
as §1

Experiment [6] concerns Rhizoctonia solani. As to the kind of experiment: Test Example 5: control test on paddy rice sheath blight, submerged application. The following applies: submerged application of granule. On the procedure:
After 14 days from the treatment, Rhizoctonia solani cultured on a rice chaff/bran medium was inoculated on the basal of the rice plant. After 10 days from the inoculation, the extended lesion length of sheath blight of the whole stem was examined. The control value was calculated according to the following equation (3 replications).
as §1

Where [7] appears, read: Pyricularia oryzae, 168 h, read-out: Control value.
The mark [8] stands for this setting: rice blast, sprayed at 60 ppm active ingredient, lesions after 7 days.

Where two headings read alike, the source gives them in different places.

Regarding `CC(C)CC(C)c1sccc1NC(=O)c1cn(C)nc1C(F)(F)F` (racemic) [Penthiopyrad, (RS)—N-[2-(1,3-dimethylbutyl)thiophene-3-yl]-1-methyl-3-trifluoromethyl-1H-pirazole-4-carboxamide, reference compound], the pest or weed control at 200 ppm in the experiment with Pyricularia oryzae [1] (setting [7]) amounted to 95%.
Take `CSC(=O)c1cccc2nnsc12` [Acibenzolar-S-methyl]: the Control value in the experiment with Pyricularia oryzae [2] (1 gai/box) is 96.
For the compound `CO/C=C(/C(=O)OC)c1ccccc1Oc1cc(Oc2ccccc2C#N)ncn1` [Azoxystrobin, reference compound], the Control value in the experiment with Rhizoctonia solani [3] (80 ppm) came out at 93.
In the case of `Cc1ccc(C(=O)NCC(NC(=O)OCCF)C(C)C)cc1` (stereo not shown) [Compound 2], the “Effect (class of control value)” value in the experiment on Pyricularia oryzae [4] (in vivo) is “A (key: A: Not less than 80%; B: Not less than 50% to less than 80%; C: Less than 50%)”.
As for `Cc1ccc(C(=O)NCC(NC(=O)OCCCl)C(C)C)cc1` (stereo not shown) [Compound 3], the “Effect (class of control value)” value in the experiment with Pyricularia oryzae [4] (in vivo) is reported as “A (key: A: Not less than 80%; B: Not less than 50% to less than 80%; C: Less than 50%)”.
For `Cc1ccc(C(=O)NCC(NC(=O)OCCBr)C(C)C)cc1` (stereo not shown) [Compound 4], the “Effect (class of control value)” value with Pyricularia oryzae [4] (in vivo) is recorded as “A (key: A: Not less than 80%; B: Not less than 50% to less than 80%; C: Less than 50%)”.
Consider `Cc1ccc(C(=O)NCC(NC(=O)OCCI)C(C)C)cc1` (stereo not shown) [Compound 5], for which, in the experiment with Pyricularia oryzae [4] (in vivo), the “Effect (class of control value)” value is listed as “A (key: A: Not less than 80%; B: Not less than 50% to less than 80%; C: Less than 50%)”.
On to `Cc1ccc(C(=O)NC(CNC(=O)OCC(Cl)(Cl)Cl)C(C)C)cc1` (stereo not shown) [Compound 7, N-(2,2,2-trichloroethyloxycarbonyl)-N′-(4-methylbenzoyl)-3-methyl-1,2-butanediamine], for which the “Effect (class of control value)” value in the experiment with Pyricularia oryzae [4] (setting [8]) was “A (Not less than 80%)”.
Turning to `Cc1ccc(C(=O)NC(CNC(=O)OC(C(F)(F)F)C(F)(F)F)C(C)C)cc1` (stereo not shown) [Compound 8, N-(1,1,1,3,3,3-hexafluoro-2-propyloxycarbonyl)-N′-(4-methylbenzoyl)-3-methyl-1,2-butanediamine], the “Effect (class of control value)” value in the experiment with Pyricularia oryzae [4] (setting [8]) is on record as “A (Not less than 80%)”.
With `Cc1ccc(C(=O)NCC(NC(=O)OC(CF)CF)C(C)C)cc1` (stereo not shown) [Compound 9], the “Effect (class of control value)” value with Pyricularia oryzae [4] (in vivo) is given as “A (key: A: Not less than 80%; B: Not less than 50% to less than 80%; C: Less than 50%)”.
With `Cc1ccc(C(=O)NCC(NC(=O)OCCCCl)C(C)C)cc1` (stereo not shown) [Compound 10], in the experiment with Pyricularia oryzae [4] (in vivo), the “Effect (class of control value)” value was “A (key: A: Not less than 80%; B: Not less than 50% to less than 80%; C: Less than 50%)”.
The same measure, in the same setting: for `Cc1ccc(C(=O)NCC(NC(=O)OC(CBr)CBr)C(C)C)cc1` (stereo not shown) [Compound 11] the value was “B (key: A: Not less than 80%; B: Not less than 50% to less than 80%; C: Less than 50%)”.
For `Cc1ccc(C(=O)NCC(NC(=O)OCC(F)(F)C(F)(F)C(F)(F)F)C(C)C)cc1` (stereo not shown) [Compound 13], in the experiment with Pyricularia oryzae [4] (in vivo), the “Effect (class of control value)” value was “A (key: A: Not less than 80%; B: Not less than 50% to less than 80%; C: Less than 50%)”.
Take `Cc1ccc(C(=O)NCC(NC(=O)OCCC(F)(F)C(F)(F)C(F)(F)C(F)(F)F)C(C)C)cc1` (stereo not shown) [Compound 14]: in the experiment with Pyricularia oryzae [4] (in vivo), the “Effect (class of control value)” value was “B (key: A: Not less than 80%; B: Not less than 50% to less than 80%; C: Less than 50%)”.
On to `Cc1ccc(C(=O)NCC(NC(=O)OC2CCCCC2F)C(C)C)cc1` (stereo not shown) [Compound 16], for which, in the experiment on Pyricularia oryzae [4] (in vivo), the “Effect (class of control value)” value is given as “A (key: A: Not less than 80%; B: Not less than 50% to less than 80%; C: Less than 50%)”.
Consider `Cc1ccc(C(=O)NCC(NC(=O)OCC(F)(F)F)C(C)(C)C)cc1` (stereo not shown) [Compound 24], for which the Control value is 97 in the experiment with Pyricularia oryzae [1] (60 ppm), 4 in the experiment on Rhizoctonia solani [5] (7.5 gai/box), 4 in the experiment with Rhizoctonia solani [6] (225 gai/10a) and 2 with Rhizoctonia solani [3] (60 ppm). Further, in the experiment on Pyricularia oryzae [4] (in vivo), the “Effect (class of control value)” value is “A (key: A: Not less than 80%; B: Not less than 50% to less than 80%; C: Less than 50%)”.
Regarding `CC(C)(C)C(CNC(=O)c1cc2ccccc2o1)NC(=O)OCC(F)(F)F` (stereo not shown) [Compound 31], the Control value was found to be 96 with Pyricularia oryzae [1] (60 ppm), 2 in the experiment on Rhizoctonia solani [5] (7.5 gai/box), 4 in the experiment with Rhizoctonia solani [6] (225 gai/10a) and 4 in the experiment with Rhizoctonia solani [3] (60 ppm). In addition, the “Effect (class of control value)” value in the experiment on Pyricularia oryzae [4] (in vivo) is “A (key: A: Not less than 80%; B: Not less than 50% to less than 80%; C: Less than 50%)”.
`Cc1ccc(C(=O)NCC(NC(=O)OCC(F)(F)F)C2CCCC2)cc1` (stereo not shown) [Compound 36]: the “Effect (class of control value)” value in the experiment on Pyricularia oryzae [4] (in vivo) was “A (key: A: Not less than 80%; B: Not less than 50% to less than 80%; C: Less than 50%)”.
For `CC(C)C(CNC(=O)c1nc2ccc(F)cc2s1)NC(=O)OCC(F)(F)F` (stereo not shown) [Compound 37], the Control value in the experiment with Pyricularia oryzae [1] (60 ppm) was 98; in the experiment on Rhizoctonia solani [3] (60 ppm), 3. In the experiment with Pyricularia oryzae [4] (in vivo), the “Effect (class of control value)” value was “A (key: A: Not less than 80%; B: Not less than 50% to less than 80%; C: Less than 50%)”.
As for `CC(C)C(CNC(=O)c1nc2ccccc2s1)NC(=O)OCC(F)(F)F` (stereo not shown) [Compound 38], the results for the Control value in the experiment on Pyricularia oryzae [1] (60 ppm) and with Rhizoctonia solani [3] (60 ppm) were 96 and 3, respectively. In the experiment with Pyricularia oryzae [4] (in vivo), the “Effect (class of control value)” value is “A (key: A: Not less than 80%; B: Not less than 50% to less than 80%; C: Less than 50%)”.
As to `CCC(CC)C(CNC(=O)c1ccc(C)cc1)NC(=O)OCC(F)(F)F` (stereo not shown) [Compound 39], the “Effect (class of control value)” value with Pyricularia oryzae [4] (in vivo) is “A (key: A: Not less than 80%; B: Not less than 50% to less than 80%; C: Less than 50%)”.
On to `CC(CNC(=O)c1cc2ccccc2o1)NC(=O)OCC(F)(F)F` (stereo not shown) [Compound 40], for which the Control value came to 97 in the experiment with Pyricularia oryzae [1] (60 ppm) and 4 in the experiment with Rhizoctonia solani [3] (60 ppm). In addition, the “Effect (class of control value)” value with Pyricularia oryzae [4] (in vivo) is “A (key: A: Not less than 80%; B: Not less than 50% to less than 80%; C: Less than 50%)”.
The compound `N#Cc1ccccc1NC(=O)c1snc(Cl)c1Cl` [Compound 104] returned a Control value in the experiment on Pyricularia oryzae [2] (1.5 gai/box) of 98.
On to `CC(=O)Oc1c(C)c(C)nc2c(F)cc(C(C)(C)C)cc12` [Compound 105, reference compound], for which the pest or weed control at 300 ppm in the experiment with Pyricularia oryzae [1] (setting [7]) amounted to 98%.
Compound `C[C@@H](NC(=O)C(C#N)C(C)(C)C)c1ccc(Cl)cc1Cl` (stereo partly shown) [Diclocymet] showed a Control value in the experiment with Pyricularia oryzae [2] (1.5 gai/box) of 97.
In the experiment on Rhizoctonia solani [3] (20 ppm), `Cc1c(Cl)cc(-c2ccc(=O)[nH]n2)cc1Cl` [Diclomezine, reference compound] came in with a Control value of 95.
As for `CCOP(=O)(Sc1ccccc1)Sc1ccccc1` [EDDP, reference compound], the Control value in the experiment on Pyricularia oryzae [1] (300 ppm) amounted to 97.
For the compound `C/C(=N/Nc1nc(C)cc(C)n1)c1ccccc1C` [Ferimzone, reference compound], in the experiment with Pyricularia oryzae [1] (setting [7]), the pest or weed control at 300 ppm turned out to be 98%.
As to `CC(C)Oc1cccc(NC(=O)c2ccccc2C(F)(F)F)c1` [Flutolanil, reference compound], the Control value in the experiment on Rhizoctonia solani [6] (210 gai/10a) was 96; with Rhizoctonia solani [3] (250 ppm) it was 94.
On to `Cc1ccc(C(=O)NCC(NC(=O)Oc2ccc3ccccc3c2)C(C)C)cc1` (stereo not shown) [Formula (16), reference compound], for which the “Effect (class of control value)” value in the experiment with Pyricularia oryzae [4] (setting [8]) is listed as “C (Less than 50%)”.
On to `CSCC(C)OC(=O)NC(CNC(=O)c1ccc(C)cc1)C(C)C` (stereo not shown) [Formula (17), reference compound], for which the “Effect (class of control value)” value in the experiment on Pyricularia oryzae [4] (setting [8]) is “C (Less than 50%)”.
With `O=C1OCc2c(Cl)c(Cl)c(Cl)c(Cl)c21` [Fthalide, reference compound], the pest or weed control at 300 ppm with Pyricularia oryzae [1] (setting [7]) is 97%.
Regarding `Cc1nn(C)c(Cl)c1C(=O)Nc1cccc2c1C(C)OC2(C)C` (stereo not shown) [Furametpyr, reference compound], the Control value in the experiment with Rhizoctonia solani [5] (2 gai/box) is 96; with Rhizoctonia solani [6] (45 gai/10a), 96; in the experiment with Rhizoctonia solani [3] (100 ppm), 95.
As to `CC(C)OC(=O)C(C(=O)OC(C)C)=C1SCCS1` [Isoprothiolane, reference compound], the pest or weed control at 400 ppm with Pyricularia oryzae [1] (setting [7]) was 98%.
Consider `C[C@H]1O[C@H](O[C@H]2[C@H](O)[C@@H](O)[C@@H](O)[C@H](O)[C@@H]2O)[C@@H](N)C[C@@H]1NC(=N)C(=O)O` [Kasugamycin, reference compound], for which the Control value with Pyricularia oryzae [1] (rice blast, spraying, 20 ppm) amounted to 97.
Compound `Cc1ccccc1C(=O)Nc1cccc(OC(C)C)c1` [Mepronil, reference compound] returned a Control value with Rhizoctonia solani [3] (750 ppm) of 94.
For `O=C(Nc1ccccc1)N(Cc1ccc(Cl)cc1)C1CCCC1` [Pencycuron, reference compound], the Control value in the experiment on Rhizoctonia solani [3] (167 ppm) came out at 95.
Compound `C=CCOC1=NS(=O)(=O)c2ccccc21` [Probenazole] yielded a Control value with Pyricularia oryzae [2] (12 gai/box) of 98.
Consider `Cc1nc(C(F)(F)F)c(C(=O)Nc2c(Br)cc(OC(F)(F)F)cc2Br)s1` [Thifluzamide, reference compound], for which the Control value in the experiment with Rhizoctonia solani [5] (1 gai/box) and with Rhizoctonia solani [6] (60 gai/10a) was 95 in each case.
As for `Cc1ccc(NC(=O)c2snnc2C)cc1Cl` [Tiadinil], the Control value in the experiment on Pyricularia oryzae [2] (6 gai/box) came out at 95.
For `Cc1cccc2sc3nncn3c12` [Tricyclazole, reference compound], the pest or weed control at 200 ppm in the experiment with Pyricularia oryzae [1] (setting [7]) was found to be 99%. In addition, the Control value in the experiment on Pyricularia oryzae [2] (2 gai/box) came out at 96.
Turning to `OCC1=C[C@H](N[C@H]2C[C@H](CO)[C@@H](O[C@@H]3O[C@H](CO)[C@@H](O)[C@H](O)[C@H]3O)[C@H](O)[C@H]2O)[C@H](O)[C@@H](O)[C@@H]1O` [Validamycin, reference compound], the Control value in the experiment on Rhizoctonia solani [3] (60 ppm) stood at 94.
